Data as given in ChEMBL document CHEMBL3046534, “QSAR modeling of the inhibition of reverse transcriptase enzyme with benzimidazolone analogs” (Med Chem Res, 2011).
pEC50: −log10 of the molar value.

Test system: Human immunodeficiency virus 1
Test: Antiviral activity against Human immunodeficiency virus 1 infected human MT4 cells assessed as protection against virus-induced cytopathic effect
Type: functional, organism-based
Conditions: Human immunodeficiency virus 1, MT4; for pEC50: read-out: EC50; for EC50: read-out: pEC50 (converted)

Row | pEC50 | EC50 [µM] | SMILES
1 | 5.55 | 2.83 | CC(C)c1ccc(Cn2c(O)nc3ccc(Cl)cc32)cc1
2 | 6.06 | 0.87 | Oc1nc2ccc(Cl)cc2n1Cc1cccc2ccccc12

More lines, now with the values behind:

Row | SMILES | pEC50 | EC50 [µM]
3 | Oc1nc2cc(Cl)ccc2n1Cc1c(F)cccc1F | 4.53 | 29.6
4 | O=c1oc2ccc(Cl)cc2n1Cc1c(F)cccc1F | 5.43 | 3.72
5 | O=c1[nH]c2ccc(Cl)cc2n1Cc1c(F)cccc1F | – | 0.534
